Assay results as given in EP4610269A1, “UROKINASE PLASMINOGEN ACTIVATOR SURFACE RECEPTOR (UPAR) LIGANDS FOR DIAGNOSTIC OR THERAPEUTIC USE” (3B Pharmaceuticals GmbH, priority 2024, dated 2025).
Where a SMILES comes first, the peptide text is derived from it. Bridges are numbered along the chain shown (N, C = ends). [ ]: non-standard residue; d: D form. The star is where a group is joined. X4 = C[N+](C)(CCCC[C@H](NC(=O)CN1CCN(CC(=O)O)CCN(CC(=O)O)CCN(CC(=O)O)CC1)C(=O)*)CCCS(=O)(=O)[O-]; Acetyl(4-DOTA-piperazinyl) = O=C(O)CN1CCN(CC(=O)O)CCN(CC(=O)N2CCN(CC(=O)*)CC2)CCN(CC(=O)O)CC1; DOTA = O=C(O)CN1CCN(CC(=O)O)CCN(CC(=O)*)CCN(CC(=O)O)CC1; Pro(trans-4-F) = O=C(O)[C@@H]1C[C@@H](F)CN1; Tyr(3-Cl) = N[C@@H](Cc1ccc(O)c(Cl)c1)C(=O)O; Oic = O=C(O)[C@@H]1C[C@@H]2CCCC[C@@H]2N1; Pro(cis-4-F) = O=C(O)[C@@H]1C[C@H](F)CN1; Dopa = N[C@@H](Cc1ccc(O)c(O)c1)C(=O)O; Hyp = O=C(O)[C@@H]1C[C@@H](O)CN1; hPhe = N[C@@H](CCc1ccccc1)C(=O)O; Pentanoyl(4-Me) = CC(C)CCC(=O)*; Cit = NC(=O)NCCC[C@H](N)C(=O)O; Gly(cPr) = N[C@H](C(=O)O)C1CC1; Butoxycarbonyl = CCCCOC(=O)*; Phg = N[C@H](C(=O)O)c1ccccc1; Octanoyl = CCCCCCCC(=O)*; Orn = NCCC[C@H](N)C(=O)O; Api = NC1(C(=O)O)CCNCC1; Nva = CCC[C@H](N)C(=O)O; Deg = CCC(N)(CC)C(=O)O; Pentanoyl = CCCCC(=O)*

What was measured:
[1] = biological target: T1, uPAR-expressing HEC-265 human endometrial adenocarcinoma cells (Homo sapiens, UniProt Q03405); assay: Competitive FACS binding assay; conditions: pIC50 category of FACS binding
T1 construct: Cell surface uPAR-expressing HEC-265 human endometrial adenocarcinoma cells; host or cells: HEC-265
In short: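 HEC-265 cells incubated 1 h at 4 °C with 10 nM biotinylated uPAR peptide tracer plus increasing test compound, then stained with APC-streptavidin on ice. Median APC fluorescence by flow cytometry; 4PL fit gives pIC50.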

human uPAR (uPAR-Fc) = biological target: T2, human uPAR (uPAR-Fc) (Homo sapiens, UniProt Q03405); assay: Surface plasmon resonance (SPR) assay, single cycle kinetics; type: binding; conditions: pKD category for uPAR SPR activity assay; uPAR-Fc on Protein A-Chip, 25°C; read-out: pKD CAT (converted)
T2 construct: comprising amino acids Leu23-Arg303 according to UniProt entry Q03405.1; purchased R&D Systems 10378-UK-100
In short: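 uPAR-Fc (Leu23-Arg303 extracellular domains, human IgG1 Fc) captured on Protein A chip to ~2000 RU; single-cycle kinetics at 25°C in HEPES running buffer pH 7.4 with 0.1% DMSO. KD from double-referenced sensorgrams fitted to 1:1 Langmuir model, reported as pKD.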

T1 sequence (Q03405 23-335): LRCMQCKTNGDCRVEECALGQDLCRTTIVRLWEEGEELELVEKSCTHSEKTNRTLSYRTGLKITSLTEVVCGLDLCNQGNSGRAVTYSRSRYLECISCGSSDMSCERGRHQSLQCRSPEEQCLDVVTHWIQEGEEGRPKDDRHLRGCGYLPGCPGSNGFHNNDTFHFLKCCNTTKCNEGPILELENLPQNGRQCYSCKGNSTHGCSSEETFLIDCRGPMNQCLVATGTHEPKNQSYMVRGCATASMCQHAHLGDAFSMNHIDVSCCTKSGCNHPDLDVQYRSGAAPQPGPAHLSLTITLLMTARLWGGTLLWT
T2 sequence (Q03405 23-303): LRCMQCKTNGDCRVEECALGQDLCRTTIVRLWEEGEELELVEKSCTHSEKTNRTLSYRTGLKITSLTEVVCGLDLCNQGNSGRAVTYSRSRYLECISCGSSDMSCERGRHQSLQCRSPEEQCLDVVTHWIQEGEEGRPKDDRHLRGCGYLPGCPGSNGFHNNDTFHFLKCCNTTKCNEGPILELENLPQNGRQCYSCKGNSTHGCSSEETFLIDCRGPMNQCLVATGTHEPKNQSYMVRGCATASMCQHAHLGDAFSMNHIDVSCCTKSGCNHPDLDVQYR

Row | Compound | IC50 [1] [nM] | Kd (human uPAR (uPAR-Fc)) [nM]
1 | CC[C@H](C)[C@@H]1NC(=O)[C@@H](C)NC(=O)[C@@H]2C[C@@H](F)CN2C(=O)[C@H](Cc2ccccc2)NC(=O)[C@H](Cc2ccc(O)cc2)NC(=O)[C@H](CCC(N)=O)NC(=O)[C@H](CCCNC(N)=O)NC(=O)[C@@H](NC(=O)CCC(C)C)CSSC[C@@H](C(N)=O)NC(=O)[C@H](CC(C)C)NC1=O [UPAR-178, iHex-[Cys-Cit-Gln-Tyr-Phe-4Tfp-ala-Ile-Leu-Cys]-NH2] ({Pentanoyl(4-Me)}-C[Cit]QYF[Pro(trans-4-F)][dA]ILC-NH2; disulfide 1-10) | ≤ 10 | 1.58 to 10
2 | CCCCC(=O)N[C@H]1CSSC[C@@H](C(N)=O)NC(=O)[C@H](CCC)NC(=O)C(CC)(CC)NC(=O)[C@@H]2C[C@@H](O)CN2C(=O)[C@@H]2CCCN2C(=O)[C@H](Cc2ccccc2)NC(=O)[C@H](Cc2ccc(O)cc2)NC(=O)[C@H](CCC(N)=O)NC(=O)[C@H](CCCNC(=N)N)NC1=O [UPAR-179, Pent-[Cys-Arg-Gln-Tyr-Phe-Pro-Hyp-Deg-Nva-Cys]-NH2] (Pentanoyl-CRQYFP[Hyp][Deg][Nva]C-NH2; disulfide 1-10) | ≥ 126 | > 100
3 | CC[C@H](C)[C@@H]1NC(=O)[C@@H](C)NC(=O)[C@@H]2CCCN2C(=O)[C@H](CCc2ccccc2)NC(=O)[C@H](Cc2ccc(O)cc2)NC(=O)[C@H](CCC(N)=O)NC(=O)[C@H](CCCNC(N)=O)NC(=O)[C@@H](NC(=O)CCC(C)C)CSSC[C@@H](C(N)=O)NC(=O)[C@H](CC(C)C)NC1=O [UPAR-180, iHex-[Cys-Cit-Gln-Tyr-Hfe-Pro-ala-Ile-Leu-Cys]-NH2] ({Pentanoyl(4-Me)}-C[Cit]QY[hPhe]P[dA]ILC-NH2; disulfide 1-10) | ≥ 126 | > 100
4 | CCCCOC(=O)N[C@H]1CSSC[C@@H](C(N)=O)NC(=O)[C@H](CCC)NC(=O)[C@H]([C@@H](C)CC)NC(=O)[C@@H]2C[C@@H](O)CN2C(=O)[C@@H]2C[C@H](F)CN2C(=O)[C@H](Cc2ccccc2)NC(=O)[C@H](Cc2ccc(O)cc2)NC(=O)[C@H](CCCCNC(=O)CN2CCN(C(=O)CN3CCN(CC(=O)O)CCN(CC(=O)O)CCN(CC(=O)O)CC3)CC2)NC(=O)[C@H]([C@@H](C)O)NC1=O [UPAR-181, Butoc-[Cys-Thr-Lys(DOTA-PPAc)-Tyr-Phe-4Cfp-Hyp-Ile-Nva-Cys]-NH2] (Butoxycarbonyl-CTK(Acetyl(4-DOTA-piperazinyl))YF[Pro(cis-4-F)][Hyp]I[Nva]C-NH2; disulfide 1-10) | ≤ 10 | < 1.58
5 | CC[C@H](C)[C@@H]1NC(=O)[C@@H](C)NC(=O)[C@@H]2CCCN2C(=O)[C@H](Cc2ccccc2)NC(=O)[C@H](Cc2ccc(O)cc2)NC(=O)[C@H](CCC(N)=O)NC(=O)[C@H](CCCNC(N)=O)NC(=O)[C@@H](NC(=O)CCC(C)C)CSSC[C@@H](C(N)=O)NC(=O)[C@H](C(C)C)NC1=O [UPAR-184, iHex-[Cys-Cit-Gln-Tyr-Phe-Pro-ala-Ile-Val-Cys]-NH2] ({Pentanoyl(4-Me)}-C[Cit]QYFP[dA]IVC-NH2; disulfide 1-10) | ≤ 10 | 1.58 to 10
6 | CCCCC(=O)N[C@H]1CSSC[C@@H](C(N)=O)NC(=O)[C@H](CCC)NC(=O)[C@H]([C@@H](C)CC)NC(=O)[C@@H]2C[C@@H](O)CN2C(=O)[C@@H]2CCCN2C(=O)[C@H](Cc2ccccc2)NC(=O)[C@H](Cc2ccc(O)cc2)NC(=O)[C@H](CCC(N)=O)NC(=O)C2(CCNCC2)NC1=O [UPAR-186, Pent-[Cys-Apc-Gln-Tyr-Phe-Pro-Hyp-Ile-Nva-Cys]-NH2] (Pentanoyl-C[Api]QYFP[Hyp]I[Nva]C-NH2; disulfide 1-10) | ≤ 10 | < 1.58
7 | CC(C)CCC(=O)N[C@H]1CSSC[C@@H](C(N)=O)NC(=O)[C@H](CC(C)C)NC(=O)[C@H](C2CC2)NC(=O)[C@@H](C)NC(=O)[C@@H]2CCCN2C(=O)[C@H](Cc2ccccc2)NC(=O)[C@H](Cc2ccc(O)cc2)NC(=O)[C@H](CCC(N)=O)NC(=O)[C@H](CCCNC(N)=O)NC1=O [UPAR-187, iHex-[Cys-Cit-Gln-Tyr-Phe-Pro-ala-Cpa-Leu-Cys]-NH2] ({Pentanoyl(4-Me)}-C[Cit]QYFP[dA][Gly(cPr)]LC-NH2; disulfide 1-10) | ≥ 126 | > 100
8 | CC[C@H](C)[C@@H]1NC(=O)[C@@H](C)NC(=O)[C@@H]2CCCN2C(=O)[C@H](Cc2ccccc2)NC(=O)[C@H](Cc2ccc(O)c(Cl)c2)NC(=O)[C@H](CCC(N)=O)NC(=O)[C@H](CCCNC(N)=O)NC(=O)[C@@H](NC(=O)CCC(C)C)CSSC[C@@H](C(N)=O)NC(=O)[C@H](CC(C)C)NC1=O [UPAR-188, iHex-[Cys-Cit-Gln-Mcy-Phe-Pro-ala-Ile-Leu-Cys]-NH2] ({Pentanoyl(4-Me)}-C[Cit]Q[Tyr(3-Cl)]FP[dA]ILC-NH2; disulfide 1-10) | ≤ 10 | < 1.58
9 | CCCCC(=O)N[C@H]1CSSC[C@@H](C(N)=O)NC(=O)[C@H](CCC)NC(=O)[C@H]([C@@H](C)CC)NC(=O)[C@@H]2C[C@@H]3CCCC[C@@H]3N2C(=O)[C@@H]2CCCN2C(=O)[C@H](Cc2ccccc2)NC(=O)[C@H](Cc2ccc(O)cc2)NC(=O)[C@H](CCC(N)=O)NC(=O)[C@H](CCCNC(=N)N)NC1=O [UPAR-190, Pent-[Cys-Arg-Gln-Tyr-Phe-Pro-Oic-Ile-Nva-Cys]-NH2] (Pentanoyl-CRQYFP[Oic]I[Nva]C-NH2; disulfide 1-10) | 12.6 to 31.6 | < 1.58
10 | CCCCOC(=O)N[C@H]1CSSC[C@@H](C(N)=O)NC(=O)[C@H](CCC)NC(=O)[C@H]([C@@H](C)CC)NC(=O)[C@@H]2C[C@@H](O)CN2C(=O)[C@@H]2C[C@H](F)CN2C(=O)[C@H](Cc2ccccc2)NC(=O)[C@H](Cc2ccc(O)cc2)NC(=O)[C@H](CCCNC(=O)CN2CCN(CC(=O)O)CCN(CC(=O)O)CCN(CC(=O)O)CC2)NC(=O)[C@H]([C@@H](C)O)NC1=O [UPAR-192, Butoc-[Cys-Thr-Orn(DOTA)-Tyr-Phe-4Cfp-Hyp-Ile-Nva-Cys]-NH2] (Butoxycarbonyl-CT[Orn](DOTA)YF[Pro(cis-4-F)][Hyp]I[Nva]C-NH2; disulfide 1-10) | ≤ 10 | < 1.58
11 | CCCCCCCC(=O)N[C@H]1CSSC[C@@H](C(N)=O)NC(=O)[C@H](CCC)NC(=O)[C@H]([C@@H](C)CC)NC(=O)[C@@H]2C[C@@H](O)CN2C(=O)[C@@H]2CCCN2C(=O)[C@H](Cc2ccccc2)NC(=O)[C@H](Cc2ccc(O)cc2)NC(=O)[C@H](CCC(N)=O)NC(=O)[C@H](CCCNC(=N)N)NC1=O [UPAR-193, Oct-[Cys-Arg-Gln-Tyr-Phe-Pro-Hyp-Ile-Nva-Cys]-NH2] (Octanoyl-CRQYFP[Hyp]I[Nva]C-NH2; disulfide 1-10) | ≤ 10 | < 1.58
12 | CCCCOC(=O)N[C@H]1CSSC[C@@H](C(N)=O)NC(=O)[C@H](CCC)NC(=O)[C@H]([C@@H](C)CC)NC(=O)[C@@H]2C[C@@H](O)CN2C(=O)[C@@H]2C[C@H](F)CN2C(=O)[C@H](Cc2ccccc2)NC(=O)[C@H](Cc2ccc(O)c(O)c2)NC(=O)[C@H](CCCCNC(=O)[C@H](CCCC[N+](C)(C)CCCS(=O)(=O)[O-])NC(=O)CN2CCN(CC(=O)O)CCN(CC(=O)O)CCN(CC(=O)O)CC2)NC(=O)[C@H]([C@@H](C)O)NC1=O [UPAR-194, Butoc-[Cys-Thr-Lys(DOTA-Kzw)-Dopa-Phe-4Cfp-Hyp-Ile-Nva-Cys]-NH2] (Butoxycarbonyl-CTK(X4)[Dopa]F[Pro(cis-4-F)][Hyp]I[Nva]C-NH2; disulfide 1-10) | ≤ 10 | < 1.58
13 | CCCCC(=O)N[C@H]1CSSC[C@@H](C(N)=O)NC(=O)[C@H](CCC)NC(=O)[C@H]([C@@H](C)CC)NC(=O)[C@@H]2C[C@@H](O)CN2C(=O)[C@@H]2CCCN2C(=O)[C@H](Cc2ccccc2)NC(=O)[C@H](CC(C)C)NC(=O)[C@H](CCC(N)=O)NC(=O)[C@H](CCCNC(=N)N)NC1=O [UPAR-195, Pent-[Cys-Arg-Gln-Leu-Phe-Pro-Hyp-Ile-Nva-Cys]-NH2] (Pentanoyl-CRQLFP[Hyp]I[Nva]C-NH2; disulfide 1-10) | 12.6 to 31.6 | 1.58 to 10
14 | CCCCC(=O)N[C@H]1CSSC[C@@H](C(N)=O)NC(=O)[C@H](CCC)NC(=O)[C@H]([C@@H](C)CC)NC(=O)[C@@H]2C[C@@H](O)CN2C(=O)[C@@H]2CCCN2C(=O)[C@H](Cc2ccccc2)NC(=O)[C@H](c2ccccc2)NC(=O)[C@H](CCC(N)=O)NC(=O)[C@H](CCCNC(=N)N)NC1=O [UPAR-196, Pent-[Cys-Arg-Gln-Phg-Phe-Pro-Hyp-Ile-Nva-Cys]-NH2] (Pentanoyl-CRQ[Phg]FP[Hyp]I[Nva]C-NH2; disulfide 1-10) | ≥ 126 | > 100
15 | CCCCC(=O)N[C@H]1CSSC[C@@H](C(N)=O)NC(=O)[C@H](CCC)NC(=O)[C@H]([C@@H](C)CC)NC(=O)[C@@H]2C[C@@H](O)CN2C(=O)[C@@H]2CCCN2C(=O)[C@H](CC(C)C)NC(=O)[C@H](Cc2ccc(O)cc2)NC(=O)[C@H](CCC(N)=O)NC(=O)[C@H](CCCNC(=N)N)NC1=O [UPAR-197, Pent-[Cys-Arg-Gln-Tyr-Leu-Pro-Hyp-Ile-Nva-Cys]-NH2] (Pentanoyl-CRQYLP[Hyp]I[Nva]C-NH2; disulfide 1-10) | 12.6 to 31.6 | 1.58 to 10
